Values of other authors, collected in patent US7094785B1, “Method of treating polycythemia vera” (Cornell Research Foundation, Inc., priority 2002, dated 2006).
Structures can show the parent of a compound that is named as a salt.

Test system: essential thrombocythemia or myelofibrosis

Question: For `Cc1ccc(NC(=O)c2ccc(CN3CCN(C)CC3)cc2)cc1Nc1nccc(-c2cccnc2)n1` [imatinib mesylate, N-{5-[4-(4-methyl-piperazino-methyl)-benzoylamido]-2-methylphenyl}-4-(3-pyridyl)-2-pyrimidine-amine], which “effectiveness in other myeloproliferative disorders” value is on record?
Answer: not effective
